Results published in patent US12624368B2 (priority 2018, dated 2026).
Values after ≈ are worked out from the molar mass of the structure shown. “Also recorded” adds a separate entry of the source. Read-outs that look alike come from different tables or passages of the source. Where a SMILES comes first, the peptide text is derived from it.

Assays:
[1] = tested on: A(H7N7) virus; design: species or system BALB/c mice; settings: mouse, in vivo
[2] = tested on: A(H1N1)pdm09 virus; design: species or system BALB/c mice; settings: in vivo
[3] = tested on: A(H7N7) and A(H1N1)pdm09 virus; format: cell-based, influenza A virus; settings: 0-8,000 nM
[4] = tested on: A(H7N7) virus; settings: 1 h
[5] = tested on: A(H1N1)pdm09 virus; settings: 1 h
[6] = in vitro; settings: dog
[7] = in vitro; settings: human
[8] = tested on: endosomal acidification in MDCK cells; format: cell-based, canine
[9] = tested on: A(H1N1)pdm09 virus; format: cell-based, influenza A virus A(H1N1)pdm09
[10] = tested on: HA mediated membrane fusion; settings: pH 5
[11] = tested on: H7N7 virus
[12] = tested on: 293T cells; format: cell-based, human
[13] = tested on: mouse lungs; settings: in vivo
[14] = tested on: endosomal acidification; settings: cited from earlier work
[15] = MDCK cells, P1 25.0 μg ml^−1, TAT-P1 3.1 μg ml^−1, bafilomycin A1 100.0 nM, PA1 25.0 μg ml^−1

With CC(=O)N[C@H]1[C@H]([C@H](O)[C@H](O)CO)OC(C(=O)O)=C[C@@H]1N=C(N)N [zanamivir] the body weight loss [1] was “significantly less body weight loss”, the survival [1] was 40% and the “viral titers in mouse lungs” value [2] was “significantly reduced”. For the same compound, the “IL-6 expression in mice” value ([2]; mouse) was “significantly reduced”, the body weight loss ([2]; mouse) was “significantly reduced” and the survival ([2]; mouse) was 90%. The “susceptibility of A(H7N7) virus to zanamivir compared with A(H1N1)pdm09 virus” value [3] was “reduced susceptibility; also recorded: reduced sensitivity of A(H7N7) virus to zanamivir”.

For N=C(N)NCCC[C@H](NC(=O)[C@H](CCCNC(=N)N)NC(=O)[C@H](CCCNC(=N)N)NC(=O)[C@H](CCC(N)=O)NC(=O)[C@H](CCCNC(=N)N)NC(=O)[C@H](CCCNC(=N)N)NC(=O)[C@H](CCCCN)NC(=O)[C@H](CCCCN)NC(=O)[C@H](CCCNC(=N)N)NC(=O)CNC(=O)[C@@H](N)Cc1ccc(O)cc1)C(=O)O [TAT, YGRKKRRQRRR (SEQ ID NO: 7), reference compound], the “IC50 (H7N7)” value [4] was over 50.0 µg/mL, the “IC50 (H1N1)” value [5] was over 50.0 µg/mL and the CC50 [6] was over 400 µg/mL. For the same compound, the CC50 [7] was over 400 µg/mL.

For CC[C@H](C)[C@H](NC(=O)[C@H](CCC(N)=O)NC(=O)[C@H](CCCNC(=N)N)NC(=O)[C@H](Cc1ccccc1)NC(=O)[C@H](C)NC(=O)[C@@H](NC(=O)[C@@H]1CCCN1C(=O)[C@H](CS)NC(=O)[C@@H]1CCCN1C(=O)CNC(=O)[C@H](Cc1c[nH]c2ccccc12)NC(=O)[C@@H](N)CS)[C@@H](C)O)C(=O)NCC(=O)N[C@@H](CC(N)=O)C(=O)N[C@@H](CS)C(=O)NCC(=O)N[C@@H](CCCNC(=N)N)C(=O)N[C@@H](Cc1ccccc1)C(=O)N[C@@H](CCCNC(=N)N)C(=O)N[C@H](C(=O)N[C@@H](CCCNC(=N)N)C(=O)N[C@@H](CS)C(=O)N[C@@H](CS)C(=O)N[C@@H](CCCNC(=N)N)C(=O)N[C@H](C(=O)N[C@@H](CCCNC(=N)N)C(=O)O)[C@@H](C)CC)C(C)C [P1] (H-CWGPCPTAFRQIGNCGRFRVRCCRIR-OH), the endosomal acidification [8] was “prevented endosomal acidification”, the “viral RNP release into the nuclei” value [9] was “blocked viral RNP release into the nuclei” and the “IC50 (H7N7)” value [4] was 1.56 µg/mL (≈ 0.51 µM). The HA-mediated membrane fusion [10] was “did not inhibit HA-mediated membrane fusion”, the “viral replication in 293T cells (viral titers by plaque assay)” value [11] was “could significantly inhibit viral replication” and the CC50 [6] was over 400 µg/mL. For the same compound, the CC50 [7] was over 400 µg/mL.

In the case of CC[C@H](C)[C@H](NC(=O)[C@H](CCC(N)=O)NC(=O)[C@H](CCCNC(=N)N)NC(=O)[C@H](Cc1ccccc1)NC(=O)[C@H](C)NC(=O)[C@@H](NC(=O)[C@@H]1CCCN1C(=O)[C@H](CS)NC(=O)[C@@H]1CCCN1C(=O)CNC(=O)[C@H](Cc1c[nH]c2ccccc12)NC(=O)[C@H](CS)NC(=O)[C@H](CCCNC(=N)N)NC(=O)[C@H](CCCNC(=N)N)NC(=O)[C@H](CCCNC(=N)N)NC(=O)[C@H](CCC(N)=O)NC(=O)[C@H](CCCNC(=N)N)NC(=O)[C@H](CCCNC(=N)N)NC(=O)[C@H](CCCCN)NC(=O)[C@H](CCCCN)NC(=O)[C@H](CCCNC(=N)N)NC(=O)CNC(=O)[C@@H](N)Cc1ccc(O)cc1)[C@@H](C)O)C(=O)NCC(=O)N[C@@H](CC(N)=O)C(=O)N[C@@H](CS)C(=O)NCC(=O)N[C@@H](CCCNC(=N)N)C(=O)N[C@@H](Cc1ccccc1)C(=O)N[C@@H](CCCNC(=N)N)C(=O)N[C@H](C(=O)N[C@@H](CCCNC(=N)N)C(=O)N[C@@H](CS)C(=O)N[C@@H](CS)C(=O)N[C@@H](CCCNC(=N)N)C(=O)N[C@H](C(=O)N[C@@H](CCCNC(=N)N)C(=O)O)[C@@H](C)CC)C(C)C [TAT-P1] (H-YGRKKRRQRRRCWGPCPTAFRQIGNCGRFRVRCCRIR-OH), the survival [1] is reported as 30%, the endosomal acidification [8, 15] is reported as “prevented endosomal acidification” and the “viral RNP release into the nuclei” value [9] is reported as “blocked viral RNP release into the nuclei”. The HA-mediated membrane fusion [10] was “did not inhibit HA-mediated membrane fusion”, the “viral replication in 293T cells (viral titers by plaque assay)” value [11] was “could significantly inhibit viral replication” and the CC50 [6] was 300 µg/mL (≈ 65.2 µM). The CC50 [7] was 226 µg/mL (≈ 49.1 µM).

In the case of “NGAICWGPCPTAFRQIG NCGHFKVRCCKIRDED (SEQ ID NO: 9) [PA1, reference compound]”, the endosomal acidification [8] is reported as “did not prevent endosomal acidification”, the “effect of added agent on transfection efficiency of TAT-P1/pLuc” value [12] is reported as “did not improve the transfection efficiency” and the “effect of added peptide on transfection efficiency of TAT-P1/pLuc in mouse lungs” value [13] is reported as “did not improve the transfection efficiency”.

Compound CC[C@H](C)[C@H](NC(=O)[C@H](CCCNC(=N)N)NC(=O)[C@H](CS)NC(=O)[C@H](CS)NC(=O)[C@H](CCCNC(=N)N)NC(=O)[C@@H](NC(=O)[C@H](CCCNC(=N)N)NC(=O)[C@H](Cc1ccccc1)NC(=O)[C@H](CCCNC(=N)N)NC(=O)CNC(=O)[C@H](CS)NC(=O)[C@H](CC(N)=O)NC(=O)[C@H](CCCNC(=N)N)NC(=O)[C@H](CCCCN)NC(=O)[C@H](CCCNC(=N)N)NC(=O)[C@H](Cc1ccccc1)NC(=O)[C@H](C)NC(=O)[C@H](CCCNC(=N)N)NC(=O)[C@@H]1CCCN1C(=O)[C@H](CS)NC(=O)[C@@H]1CCCN1C(=O)[C@H](CCCNC(=N)N)NC(=O)[C@H](Cc1c[nH]c2ccccc12)NC(=O)[C@H](CS)NC(=O)[C@H](CCCNC(=N)N)NC(=O)[C@H](CCCNC(=N)N)NC(=O)[C@H](CCCNC(=N)N)NC(=O)[C@H](CCC(N)=O)NC(=O)[C@H](CCCNC(=N)N)NC(=O)[C@H](CCCNC(=N)N)NC(=O)[C@H](CCCCN)NC(=O)[C@H](CCCCN)NC(=O)[C@H](CCCNC(=N)N)NC(=O)CNC(=O)[C@@H](N)Cc1ccc(O)cc1)[C@@H](C)CC)C(=O)N[C@@H](CCCNC(=N)N)C(=O)O [TAT-P2] (H-YGRKKRRQRRRCWRPCPRAFRKRNCGRFRIRCCRIR-OH; N-terminus and C-terminus assumed) has a CC50 [6] of 160 µg/mL (≈ 33.7 µM) and a CC50 [7] of 154 µg/mL (≈ 32.4 µM).

With Bafilomycin A1 [reference compound] the endosomal acidification [8, 15] was “prevented endosomal acidification”, the “viral RNP release into the nuclei” value [9] was “blocked viral RNP release into the nuclei” and the “effect of added agent on transfection efficiency of TAT-P1/pLuc” value [12] was “increased”.

In the case of CCN(CC)CCCC(C)Nc1ccnc2cc(Cl)ccc12 (stereo not drawn) [chloroquine], the “effective concentrations for inhibiting endosomal acidification” value [14] is given as about 100 µM.

In the case of CC[C@H](C)[C@H](NC(=O)[C@H](CCCNC(=N)N)NC(=O)[C@H](CS)NC(=O)[C@H](CCCNC(=N)N)NC(=O)[C@@H](NC(=O)[C@H](CCCNC(=N)N)NC(=O)[C@H](Cc1ccccc1)NC(=O)[C@H](CCCNC(=N)N)NC(=O)CNC(=O)[C@H](CS)NC(=O)[C@H](CC(C)C)NC(=O)[C@H](CCC(N)=O)NC(=O)[C@H](CCCNC(=N)N)NC(=O)[C@H](Cc1ccccc1)NC(=O)[C@H](CO)NC(=O)[C@@H]1CCCN1C(=O)[C@H](CS)NC(=O)[C@@H]1CCCN1C(=O)[C@H](CCCNC(=N)N)NC(=O)[C@H](Cc1c[nH]c2ccccc12)NC(=O)[C@H](CS)NC(=O)[C@H](CCCNC(=N)N)NC(=O)[C@H](CCCNC(=N)N)NC(=O)[C@H](CCCNC(=N)N)NC(=O)[C@H](CCC(N)=O)NC(=O)[C@H](CCCNC(=N)N)NC(=O)[C@H](CCCNC(=N)N)NC(=O)[C@H](CCCCN)NC(=O)[C@H](CCCCN)NC(=O)[C@H](CCCNC(=N)N)NC(=O)CNC(=O)[C@@H](N)Cc1ccc(O)cc1)[C@@H](C)CC)C(=O)N[C@@H](CCCNC(=N)N)C(=O)O [TAT-P3] (H-YGRKKRRQRRRCWRPCPSFRQLCGRFRIRCRIR-OH; N-terminus and C-terminus assumed), the CC50 [6] is reported as 207 µg/mL (≈ 47.6 µM) and the CC50 [7] is reported as 205 µg/mL (≈ 47.1 µM).
